Data: patent US20230255906A1, “Targeting Serpin B9 in Cancer” (The Brigham and Women`s Hospital, Inc., priority 2020, published 2023)

Columns and labels:
MBP-Sb9 [1] = molecular target: T1, MBP-Sb9 (Homo sapiens, UniProt P50453); assay: Surface plasmon resonance (SPR) binding; details: 25° C., 1:1 Langmuir model
T1 construct: made in house
Method: Surface plasmon resonance (SPR) measures change in refractive index on a biosensor surface, as analytic mass accumulates via binding to an attached ligand. This allows derivation of affinity (KD) from measured kinetic rates of association (ka) and dissociation (kd). All assays were run at 25° C. on a BiOptix 404pi. An NTA biosensor chip was used in this study to pre-concentrate 3 μM MBP-Sb9 via an N-terminal His-tag. MBP-Sb9 was covalently immobilized with EDC/NHS in 20 mM HEPES pH 8.0, 150 mM NaCl, 0.05% Tween-20, 5 mM β-ME to 10,000 to 15,000 RUs. MBP was similarly immobilized on a separate channel as a negative control. Compounds were injected as 3-fold serial dilutions in duplicate starting at 200 μM. Injections were done at 50 μL/min for 60 seconds, followed by a 120 second dissociation in 20 mM HEPES, pH 8.0, 150 mM NaCl, 0.05% Tween-20, 5 mM j-ME, 1% DMSO. A series of five DMSO standards between 0.5% and 1.5% were included with each run to correct for bulk refractive index. Sensorgrams were analyzed using Scrubber 2 software with a double reference and fit to a 1:1 Langmuir model to determine the interaction parameters KD, ka, and kd.
T1 sequence (P50453 whole entry): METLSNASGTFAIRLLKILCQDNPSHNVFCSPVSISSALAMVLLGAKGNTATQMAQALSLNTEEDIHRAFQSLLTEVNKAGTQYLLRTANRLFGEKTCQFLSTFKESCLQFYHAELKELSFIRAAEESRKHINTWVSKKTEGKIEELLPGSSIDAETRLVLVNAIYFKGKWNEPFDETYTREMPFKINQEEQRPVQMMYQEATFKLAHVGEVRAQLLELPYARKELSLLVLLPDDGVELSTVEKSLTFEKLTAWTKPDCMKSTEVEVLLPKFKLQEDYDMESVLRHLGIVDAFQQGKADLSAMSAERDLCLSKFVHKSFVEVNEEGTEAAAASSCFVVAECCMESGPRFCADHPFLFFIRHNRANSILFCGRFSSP

MBP = MBP (Escherichia coli, UniProt P0AEX9); assay: SPR negative control channel; type: binding
Method: FIG. 4B. Sensorgrams of compounds 3,4-dihydroxybenzoic acid (top), 3-oxo-1-indancarboxylic acid (middle), and the compound of Formula (III) (bottom) show the binding of 3,4-dihydroxybenzoic acid and the compound of Formula (III) to Sb9 (top), but not to MBP (bottom) by Surface Plasmon Resonance (SPR).
All assays were run at 25° C. on a BiOptix 404pi. An NTA biosensor chip was used in this study to pre-concentrate 3 μM MBP-Sb9 via an N-terminal His-tag. MBP-Sb9 was covalently immobilized with EDC/NHS in 20 mM HEPES pH 8.0, 150 mM NaCl, 0.05% Tween-20, 5 mM β-ME to 10,000 to 15,000 RUs. MBP was similarly immobilized on a separate channel as a negative control.

MBP-Sb9 [2] = molecular target: T2, MBP-Sb9 (Homo sapiens, UniProt P50453); assay: Saturation-Transfer Difference (STD) NMR assay; type: binding
T2 construct: made in house
T2 sequence (P50453 2-376): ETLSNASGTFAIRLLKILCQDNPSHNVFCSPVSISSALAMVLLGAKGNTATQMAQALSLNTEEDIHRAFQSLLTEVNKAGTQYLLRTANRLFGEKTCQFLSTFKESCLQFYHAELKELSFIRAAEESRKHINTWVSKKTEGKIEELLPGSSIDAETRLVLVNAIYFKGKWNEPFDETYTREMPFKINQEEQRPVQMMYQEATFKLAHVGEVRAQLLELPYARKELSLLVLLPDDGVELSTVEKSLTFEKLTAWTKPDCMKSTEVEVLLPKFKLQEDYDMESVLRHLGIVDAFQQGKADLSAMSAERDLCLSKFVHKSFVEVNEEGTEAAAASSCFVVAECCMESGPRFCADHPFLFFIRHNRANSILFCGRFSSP
Text: The Saturation-Transfer Difference (STD) NMR assay was used to evaluate the binding of the compound of Formula (III) to Sb9. […] The saturation period was 3.0 seconds with irradiation at 0 ppm (on-resonance excitation) and −20 ppm (off-resonance excitation). The number of scans was 160 for the on and off-resonance spectra, respectively. Spectra were processed using Topspin software and apodized with exponential multiplication with 1.0 Hz line-broadening.
The Saturation-Transfer Difference (STD) NMR assay was used to evaluate the binding of the compounds of Formulas (I) and (II) to Sb9. […] The saturation period was 3.0 seconds with irradiation at 0.7 ppm (on-resonance excitation) and 20 ppm (off-resonance excitation). The number of scans was 800. The spectra were processed using Topspin software with 1.0 Hz line-broadening.
The Saturation-Transfer Difference (STD) NMR assay as described herein was used to evaluate the binding of the compound of Formula (III) to Sb9.

4T1 breast tumors = assay: 4T1 breast tumor model in BALB/c mice; type: in vivo, mouse
Method: Mice were anesthetized with isoflurane, and tumor cell lines (B16, A375, and 4T1) were gently injected subcutaneously in the flanks or mammary glands of mice. One hundred thousand cells (1×10^5 cells) were injected per mouse for most of the experiments. However, twenty-five thousand cells (25×10^3 cells) were injected per mouse for the experiments using the compound of Formula (III). Upon 4 hrs post-implantation, 300 μg of the compound of Formula (III) was administered twice a day intraperitoneally for 14 days. Tumor growth was monitored three times per week by digital caliper (Fisherbrand™ Traceable™ Digital Calipers).
Sb9 is highly expressed in human primary breast tumor cells (FIG. 6D) and in the stromal cells within the TME (FIGS. 6D-6E). Whether the compound of Formula (III) could be used to treat mice implanted with 4T1 breast tumor cells was therefore determined. […] Treatment with the compound of Formula (III) increased the median survival time (MST) of mice bearing 4T1 breast tumors and receiving treatment with the compound of Formula (III) as compared to mice bearing 4T1 breast tumors and not receiving treatment (MST=28 days vs MST=22 days, respectively) (FIG. 6G).
For mouse Breast Cancer model, 1×10^5 4T1 cells were subcutaneously implanted into the fourth mammary pad of BABL/c mice, and mice were separated randomly into three groups: Control, compound of Formula (I), and compound of Formula (II). In the compound of Formula (I) group, mice were treated with the compound of Formula (I) for 14 days consecutively ([…], i.p, twice a day). In the compound of Formula (II) group, mice were administrated the compound of Formula (II) 14 days consecutively (300 μg/mouse, i.p, twice a day). Tumor sizes were measured every 3 days from day 5 post-tumor implantation and calculated with formula length×width^2/2.

Sb9-GrB complex = molecular target: T3, Sb9-GrB complex (Mus musculus, UniProt F7A2V8); assay: Western blot of Sb9-GrB complex in B16 cells; type: cell-based; details: 50 μM, 200 μM, 600 μM, concentration-dependent
T3 construct: endogenous in cells
T3 sequence (F7A2V8 1-374, one chain of several): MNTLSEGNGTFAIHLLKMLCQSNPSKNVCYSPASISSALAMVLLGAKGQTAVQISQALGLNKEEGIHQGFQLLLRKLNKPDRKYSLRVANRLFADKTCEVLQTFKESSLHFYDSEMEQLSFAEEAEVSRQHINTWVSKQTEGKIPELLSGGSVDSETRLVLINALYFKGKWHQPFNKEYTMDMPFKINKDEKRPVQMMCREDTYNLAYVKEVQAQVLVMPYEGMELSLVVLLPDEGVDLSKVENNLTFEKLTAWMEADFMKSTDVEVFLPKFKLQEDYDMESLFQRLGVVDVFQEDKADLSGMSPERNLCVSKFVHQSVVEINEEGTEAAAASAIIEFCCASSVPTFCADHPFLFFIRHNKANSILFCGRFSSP
Method: FIG. 4G. […] Sb9-GrB complex (com), unbound Sb9 (mono), and complex degradation products or cleaved Sb9 (deg) are indicated by arrows. GAPDH was used as a loading control for protein normalization.
Lysates of cells and tissues were measured using the Bradford assay. Equal amounts of protein were separated by SDS-PAGE and transferred to a PVDF membrane. The membranes were immunoblotted with the following specific antibodies: anti-rabbit IgG-HRP (Sigma-Aldrich), anti-rat IgG-HRP (Sigma-Aldrich), and anti-GAPDH (Sigma-Aldrich), using standard protocols. The blots were developed with West Dura chemiluminescent substrates using a Bio-Rad ChemiDoc imaging system.

## O=C(O)c1ccc2ncoc2c1 [Formula (III), 1,3-benzoxazole-6-carboxylic acid]
MBP-Sb9 [1]
  Kd: 273 µM
MBP
  binding to MBP (negative control): not to MBP
MBP-Sb9 [2]; 420 μM compound, 45 μM Sb9 protein, PBS pH 7.0, 25° C.
  binding to MBP-Sb9 by STD NMR: confirmed the binding activity
MBP-Sb9 [2]; 450 μM compound, 45 μM Sb9, various pH values
  pH dependence of binding to MBP-Sb9 by STD NMR: enhanced significantly at lower pH
4T1 breast tumors; 17 days post-implantation
  levels of stromal cells and CAFs in breast tumors: reduced levels
4T1 breast tumors; BALB/c mice, 300 μg i.p. bid for 14 days
  reduction of size of 4T1-derived tumors vs control: 2.5 fold
4T1 breast tumors; mice bearing 4T1 breast tumors, 300 μg i.p. bid for 14 days
  median survival time (MST): 28 days
Sb9-GrB complex
  expression of the Sb9-GrB complex: reduced the expression of the Sb9-GrB complex
